Test results published in US20030198617A1, “Pharmaceutical tryptophan containing dipeptide compositions and methods of use thereof” (priority 1993, published 2003).
Like-named read-outs stand apart in the source and are kept apart here. Marks after values point to notes of the source that are not given here.

Assays:
[1] = Frostbite to the extremities; type: in vivo, human
Method: Patients with frostbite to the extremities are treated with Ile-Trp either IM or intranasally.

[2] = Radiation immunodeficiency correction two months after irradiation (Chernobyl), blood parameters; type: in vivo, human; settings: after IM862 therapy
Method: These patients were treated for 2 months immediately succeeding exposure to radiation caused from the Chernobyl nuclear accident. As a control, about 19 people exposed to radiation were tested for various blood parameters to establish a baseline.

[3] = Prolonged IM862 therapy trials in irradiated patients, blood parameters; type: in vivo, human
Excerpt: The group of patients described in Example 42 were further treated for a period of […] and tested again subsequent to the first stage of therapy (after 4 months) and after the second stage of therapy (6 months).

[4] = Immune status in early terms after irradiation; type: in vivo, human; settings: after IM862 therapy
Method: The patients described in Example 42 were tested for blood parameters the first few days after exposure to the radiation of the Chernobyl accident. It could be seen from Table 3 below that response to the treatment was observed even after a few weeks of treatment.

[5] = Immunity and non-specific resistance indices in breast cancer patients after radiotherapy; type: in vivo, human; settings: after IM862 use
ARD and influenza = type: in vivo, human
[6] = Radiation injury patients (Example 67); type: in vivo, human; settings: IM862 100 μg 10 days, 263 patients
Excerpt: A total of 263 patients and 18 control patients sustained exposure to radiation injury. […] A repeated course may be proscribed on the basis of immunological indices, and averages every 4 to 6 months. […] There was an arresting of asthenic syndrome, and an arresting of the somatic pathological exacerbations and reduction of opportunistic infections.

[7] = Young sportsmen, upper respiratory infections; type: in vivo, human; settings: IM862 intranasally 1 μg/kg, 3 days, 84 sportsmen
Excerpt: The control group consisted of 44 persons.

[8] = Infected patients (Example 96); type: in vivo, human; settings: IM862 100 μg 5-10 days, 36 patients
Excerpt: A total of 36 patients infected and 24 patients infected were controls.

Thymectomized patients = type: in vivo, human; settings: IM862 100 μg daily 10 days, repeated every 4-6 months, 12 patients
Excerpt: Prior to therapy these individuals had experienced frequent serious infections including upper respiratory infections.

skin grafts = test: Skin allograft survival in mice; type: in vivo
Staphylococci = test: Antibiotic-sensitivity of staphylococci from skin lesions (MIC, series cultivation); type: cell-based; settings: after IM862 use (initially 10 of the 15)
Excerpt: Staphylococci extracted from dermal lesions were initially sensitive to 10 of the 15 antibiotics being assayed (Table 25).

[9] = tested on: Mycobacterium tuberculosis
[10] = after the 1st stage of IM862 use
[11] = after the 2nd state of IM862 use
[12] = following two months of treatment, with chemotherapy

## Ile-Trp
[1]; Ile-Trp IM or intranasally
  clinical effect: Rapid healing and restoration of tissue integrity

## Glu-Trp [IM862]
[2]
  CD2, %: 48.7 ± 1.8 %
  CD2, abs: 1.13 ± 0.08** 10^9/l
  CD2-DR+, %: 30.0 ± 1.2 %
  CD2-DR+, abs: 0.55 ± 0.06* 10^9/l
  CD19, %: 27 ± 4%
  CD19, abs: 0.51 ± 0.10** 10^9/l
  E-RFC, %: 27.4 ± 2.4 %
  IgA: 1.49 ± 0.19 g/L
  IgG: 10.0 ± 1.0 g/L
  IgM: 1.00 ± 0.10 g/L
  LMI with ConA, %: 90 ± 10 %
  Leukocytes, abs: 5.0 ± 1.2** 10^9/l
  Lymphocytes, 2abs: 1.9 ± 0.4* 10^9/l
[3]; [10]
  CD2-DR+, %: 22.3 ± 0.5%
  CD2-DR+, abs: 0.34 ± 0.05* 10^9/l
  CD3, %: 35 ± 4 %
  CD3, abs: 0.49 ± 0.06* 10^9/l
  CD4, %: 19.5 ± 1.7 %
  CD4, abs: 0.28 ± 0.03* 10^9/l
  CD8, %: 15.4 ± 2.3%
  CD8, abs: 0.23 ± 0.03 10^9/l
  CD19, %: 15.0 ± 2.8%
  CD19, abs: 0.21 ± 0.06 10^9/l
  Leukocytes, abs: 4.7 ± 0.2* 10^9/l
  Lymphocytes, abs: 1.5 ± 0.4 10^9/l
[3]; [11]
  CD2-DR+, %: 29 ± 3 %
  CD2-DR+, abs: 0.56 ± 0.08* 10^9/l
  CD3, %: 46 ± 3 %
  CD3, abs: 0.89 ± 0.11* 10^9/l
  CD4, %: 24.1 ± 1.5 %
  CD4, abs: 0.45 ± 0.04* 10^9/l
  CD8, %: 22.3 ± 2.2 %
  CD8, abs: 0.40 ± 0.05* 10^9/l
  CD19, %: 21.1 ± 2.1 %
  CD19, abs: 0.39 ± 0.06* 10^9/l
  Leukocytes, abs: 5.5 ± 0.3* 10^9/l
  Lymphocytes, abs: 1.9 ± 0.5* 10^9/l
[4]
  C3: 0.68 ± 0.04 g/L
  CD2, %: 50.9 ± 2.4%
  CD2, abs: 1.13 ± 0.07** 10^9/l
  CD2-DR+, %: 31 ± 3 %
  CD2-DR+, abs: 0.69 ± 0.08** 10^9/l
  CD19, %: 30.5 ± 1.9 %
  CD19, abs: 0.68 ± 0.04** 10^9/l
  E-RFC, %: 23.4 ± 2.6%
  IgA: 1.11 ± 0.09 g/L
  IgG: 9.2 ± 0.7 g/L
  IgM: 0.58 ± 0.10 g/L
  LMI with ConA, %: 60 ± 7 %
  Leukocytes, abs: 6.4 ± 0.8** 10^9/l
  Lymphocytes, abs: 2.27 ± 0.16** 10^9/l
[5]
  B-lymphocyte (Ig^+) (×10^9/l): 0.17 ± 0.02 ×10^9/l
  C3-complement: 0.68 ± 0.04 g/L
  Cation: 1.49 ± 0.12
  LMI with ConA, %: 71 ± 5 %
  Lymphocytes ×10^9/l: 1.72 ± 0.21 ×10^9/l
  OKT4^+/OKT8^+: 1.86 ± 0.17
  Phagocytic index: 3.7 ± 0.2
  T-helpers (OKT4^+): 0.39 ± 0.04
  T-lymphocytes (×10^9/l): 0.92 ± 0.12 ×10^9/l
  T-suppressors (OKT8^+) (×10^9/l): 0.21 ± 0.03 ×10^9/l
  “Active” T-lymphocytes (×10^9/l): 0.52 ± 0.07 ×10^9/l
[5]; delayed-skin hypersensitivity
  DSH to tuberculin (mm): 8.7 ± 0.6 mm
[5]; sensitivity index
  SI to IM862: 1.27 ± 0.14
ARD and influenza; 1st month
  Average term of hospitalization: 6.2 days
  Need in hospitalization, %: 27.0%
  Number of temporary disablement cases/100 persons/month: 3.8 cases/100 persons/month
  Number of temporary disablement days/100 persons/month: 24.0 days/100 persons/month
  Sickness rate/100 persons/month: 9.6 /100 persons/month
ARD and influenza; 2nd month
  Average term of hospitalization: 6.2 days
  Need in hospitalization, %: 27.1%
  Number of temporary disablement cases/100 persons/month: 7.3 cases/100 persons/month
  Number of temporary disablement days/100 persons/month: 48.6 days/100 persons/month
  Sickness rate/100 persons/month: 11.3 /100 persons/month
ARD and influenza; 3rd month
  Average term of hospitalization: 6.2 days
  Need in hospitalization, %: 28.3%
  Number of temporary disablement cases/100 persons/month: 3.4 cases/100 persons/month
  Number of temporary disablement days/100 persons/month: 14.3 days/100 persons/month
  Sickness rate/100 persons/month: 9.4 /100 persons/month
ARD and influenza; 4th month
  Average term of hospitalization: 7.0 days
  Need in hospitalization, %: 28.3%
  Number of temporary disablement cases/100 persons/month: 3.6 cases/100 persons/month
  Number of temporary disablement days/100 persons/month: 26.3 days/100 persons/month
  Sickness rate/100 persons/month: 11.0 /100 persons/month
ARD and influenza; IM862 group
  Average term of hospitalization: 6.2 days
  Need in hospitalization: 30.6
  Number of temporary disablement cases/100 persons/month: 4.1 cases/100 persons/month
  Number of temporary disablement days/100 persons/month: 26.5 days/100 persons/month
  Pneumonia rate/100 persons/month: 0.20 /100 persons/month
  Rate of lingering and complicated cases, %: 3.9%
  Sickness rate per 100 persons/month: 9.8 per 100 persons/month
ARD and influenza; IM862 group, lingering and complicated cases
  The same index in-patients, %: 9.8%
ARD and influenza; IM862 vs control
  Index of efficiency: Average term of hospitalization: 1.4
  Index of efficiency: Need in hospitalization: 1.7
  Index of efficiency: Pneumonia rate: 2.5
  Index of efficiency: Rate of lingering and complicated cases: 3.5
  Index of efficiency: Sickness rate: 3.1
  Index of efficiency: The same index in-patients: 2.7
  Index of efficiency: temporary disablement cases: 1.7
  Index of efficiency: temporary disablement days: 2.2
[6]
  clinical effect: restoration of normal or near normal immune indices
[1]; IM862 IM or intranasally, 17 patients
  clinical effect: rapid healing and restoration of tissue integrity
[7]
  reduction of upper respiratory infections and rates of illness: 4 fold
[8]
  clinical effect: reduction of fever
Thymectomized patients
  clinical effect: normalization of immunologic indices
Skin grafts; mice, daily for 5 treatments prior to grafting, IM862 0.01 mg/kg, Thymalin 1.0 mg/kg
  GRAFT REJECTION TIME: 8.3 ± 0.4 days
Skin grafts; vs animals not receiving Glu-Trp
  graft survival: prolonged survival
Staphylococci
  number of the 15 tested antibiotics to which organisms from the infected foci were sensitive: 14
[9]; after 2 months of observation
  effect on immunological indices: normalizing effect
[9]; after 4-6 months of in-hospital treatment
  positive changes in the lungs, cases out of 37: 35 cases
[9]; [12]
  improvement, number of patients: 27
  significant improvement, number of patients: 9
